Values after ≈ are worked out from the molar mass of the structure shown.
Key:
[1] = tested on: L. donovani promastigotes; assay: Anti-leishmanial screening at 100 μM, parasite viability by microscopy; assay type: cell-based, Leishmania donovani; settings: L. donovani promastigotes
Method: L. donovani parasites (MHOM/IN/83/AG83) were maintained in vivo in BALB/c mice. Promastigotes were routinely cultured at 22°C in medium M199 supplemented with 10% heat inactivated fetal bovine serum (FBS, HiMedia Laboratories, Mumbai, India), penicillin 100 (IU/ml), streptomycin (100 μg/ml). Log phase promastigotes were sub-cultured every 72–96 h, the inoculum being 2 × 10^6 cells/ml (Afrin et al., [2002]).
Nitrostyrine series were screened for their antileishmanial activity against L. donovani promastigotes in vitro. Promastigotes of L. donovani (2 × 10^6 cells/mL) in M199 medium were incubated at 22°C for 72 h with each compound at a concentration of 100 μM. Amphotericin B (AmB) served as reference drug, 0.2% DMSO was used as solvent control. Parasites with media alone were taken as control. Parasite viability was determined microscopically after 72 h (Islamuddin et al., [2014b]).

[2] = tested on: Escherichia coli ATCC 25922; assay: Broth microdilution antibacterial susceptibility (MIC/MBC); assay type: cell-based; settings: Escherichia coli; for MIC: ATCC25922, 24 h, broth microdilution, 35°C, 24 h, read-out: MIC, Ec ATCC 25922; for MBC: ATCC25922, ≥99.9% reduction of original inoculum, read-out: MBC, Ec ATCC 25922
Excerpt: (§1) One reference each of the following species was used for their in vitro susceptibility to β-nitrostyrene in this study: Staphylococcus aureus ATCC 29213, Staphylococcus epidermidis ATCC 14990, Escherichia coli ATCC 25922, Pseudomonas aeruginosa ATCC 27853, Candida albicans ATCC 90028, Candida glabrata ATCC 90030, Aspergillus fumigatus ATCC 16424 and Aspergillus niger ATCC 16404. These strains were procured from the American Type Culture Collection (ATCC, Manassas, VA, USA).
(§2) The antibacterial and antifungal activities of the β-nitrostyrenes were performed by broth microdilution methods as per the guidelines of Clinical and Laboratory Standard Institute (Wayne, [1998], [2008a],[b],[c]) by using Mueller-Hinton broth (MHB; Becton-Dickinson, Cockeysville, MD, USA) supplemented with calcium (25 mg/L) and magnesium (12.5 mg/L) for bacterial strains while as RPMI 1640 medium with L-glutamine and without sodium bicarbonate, buffered to pH 7.0 with 0.165 M 3-(N-morpholino) propanesulfonic acid (MOPS; both from Sigma) was used for fungal strains. Stock solutions were prepared in 100% dimethyl sulfoxide (DMSO; Sigma; distilled water was used for ciprofloxacin), with a final DMSO concentration of 1% (vol. per vol.) and two-fold serial dilutions were prepared in media in amounts of 100 μL per well in 96-well U-bottom microtiter plates (Tarsons, Kolkata, India) to yield twice the final concentration required for testing, which ranged from 64 to 0.12 μg/mL for β-nitrostyrenes and 16 to 0.03 μg/mL for ciprofloxacin as well as amphotericin B. Stock inoculum suspensions of the bacteria, Candida species and Aspergillus species were prepared in sterile normal saline (0.85%) containing 0.05% polysorbate 20 (NST) from overnight (3 to 5-day old for Aspergillus species) strains grown on Trypticase soy agar (TSA; Becton-Dickinson) and potato dextrose agar (Difco Laboratories, Detroit, MI, USA) respectively at 35°C. Inocula were verified for each assay by plating onto agar plates for colony enumeration. These suspensions were further diluted in the respective test medium and a 100 μl volume of this diluted inoculum was added to each well of the plate, resulting in a final inoculum concentration of approximately 5 × 10^5 CFU/mL for bacter1ia, (Wayne, [2008a]) approximately 2.5 × 10^4 CFU/ml for Candida species (Pfaller et al., [2004]) while as 0.4 × 10^4 to 5 × 10^4 CFU/mL for Aspergillus species (Wayne, [2008c]). Untreated growth control, vehicle control (DMSO) and sterility control wells were included for each isolate tested. Ciprofloxacin and amphotericin B served as the standard drug controls for bacterial and fungal strains, respectively. The microtiter plates were incubated at 35°C for 24 h for bacterial strains and 48 h for fungal strains. The plates were read visually and the minimum inhibitory concentration (MIC) was defined as the lowest concentration of test sample that prevented visible growth with respect to the growth control.
(§3) The minimum bactericidal concentration (MBC) and minimum fungicidal concentration (MFC) were determined by plating 100 μl volumes on agar plates from the wells showing no visible growth (clear MIC well). The plates were incubated as described above in MIC measurements. […] All experiments were conducted twice in duplicates on separate occasions with freshly prepared inoculums and stock solutions.

[3] = tested on: Pseudomonas aeruginosa ATCC 27853; assay: as above; assay type: cell-based; settings: Pseudomonas aeruginosa; for MIC: ATCC27853, 24 h, broth microdilution, 35°C, 24 h, read-out: MIC, Pa ATCC 27853; for MBC: ATCC27853, ≥99.9% reduction of original inoculum, read-out: MBC, Pa ATCC 27853
Excerpt: as §1, §2, §3

[4] = tested on: Staphylococcus aureus ATCC 29213; assay: as above; assay type: cell-based; settings: Staphylococcus aureus; for MIC: ATCC29213, 24 h, broth microdilution, 35°C, 24 h, read-out: MIC, Sa ATCC 29213; for MBC: ATCC29213, ≥99.9% reduction of original inoculum, read-out: MBC, Sa ATCC 29213
Excerpt: as §1, §2, §3

[5] = tested on: Staphylococcus epidermidis ATCC 14990; assay: as above; assay type: cell-based; settings: Staphylococcus epidermidis; for MIC: ATCC14990, 24 h, broth microdilution, 35°C, 24 h, read-out: MIC, Se ATCC 14990; for MBC: ATCC14990, ≥99.9% reduction of original inoculum, read-out: MBC, Se ATCC 14990
Excerpt: as §1, §2, §3

[6] = tested on: Aspergillus fumigatus ATCC 16424; assay: Broth microdilution antifungal susceptibility (MIC/MFC); assay type: cell-based; settings: Aspergillus fumigatus; for MIC: ATCC16424, 48 h, broth microdilution, 35°C, 48 h, read-out: MIC, Af ATCC 16424; for MFC: ATCC16424, ≥99.9% reduction of original inoculum, read-out: MFC, Af ATCC 16424
Excerpt: as §1, §2, §3

[7] = tested on: Aspergillus niger ATCC 16404; assay: as above; assay type: cell-based; settings: Aspergillus niger; for MIC: ATCC16404, 48 h, broth microdilution, 35°C, 48 h, read-out: MIC, An ATCC 16404; for MFC: ATCC16404, ≥99.9% reduction of original inoculum, read-out: MFC, An ATCC 16404
Excerpt: as §1, §2, §3

[8] = tested on: Candida albicans ATCC 90028; assay: as above; assay type: cell-based; settings: Candida albicans; for MIC: ATCC90028, 48 h, broth microdilution, 35°C, 48 h, read-out: MIC, Ca ATCC 90028; for MFC: ATCC90028, ≥99.9% reduction of original inoculum, read-out: MFC, Ca ATCC 90028
Excerpt: as §1, §2, §3

[9] = tested on: Candida glabrata ATCC 90030; assay: as above; assay type: cell-based; settings: Nakaseomyces glabratus; for MIC: ATCC90030, 48 h, broth microdilution, 35°C, 48 h, read-out: MIC, Cg ATCC 90030; for MFC: ATCC90030, ≥99.9% reduction of original inoculum, read-out: MFC, Cg ATCC 90030
Excerpt: as §1, §2, §3

Row | Structure (SMILES) | Anti-leishmanial activity, in words (SAR discussion) [1] | melting point [°C] | MIC [2] [µg/mL] | MBC [2] [µg/mL] | MIC [3] [µg/mL] | MBC [3] [µg/mL] | MIC [4] [µg/mL] | MBC [4] [µg/mL] | MIC [5] [µg/mL] | MBC [5] [µg/mL] | MIC [6] [µg/mL] | MFC [6] [µg/mL] | MIC [7] [µg/mL] | MFC [7] [µg/mL] | MIC [8] [µg/mL] | MFC [8] [µg/mL] | MIC [9] [µg/mL] | MFC [9] [µg/mL]
1 | C/C(=C\[N+](=O)[O-])c1ccc(O)cc1 [Compound 25, 4-((E)-1-nitroprop-1-en-2-yl)phenol] | loss of activity | 88 to 90 |  |  |  |  |  |  |  |  |  |  |  |  |  |  |  | 
2 | COc1ccc(/C=C/[N+](=O)[O-])cc1OC [Compound 22, 1,2-dimethoxy-4-((E)-2-nitrovinyl) benzene] | inactive |  | > 64 | > 64 | > 64 | > 64 | > 64 | > 64 | 64 (≈ 306 µM) | 64 (≈ 306 µM) | 32 (≈ 153 µM) | 64 (≈ 306 µM) | 32 (≈ 153 µM) | 32 (≈ 153 µM) | 64 (≈ 306 µM) | 64 (≈ 306 µM) | 16 (≈ 76.5 µM) | 16 (≈ 76.5 µM)
3 | C/C(=C\c1c[nH]c2ccccc12)[N+](=O)[O-] [Compound 29, 3-((E)-2-nitroprop-1-enyl)-1H-indole] |  | 182 to 184 | > 64 | > 64 | > 64 | > 64 | 16 (≈ 79.1 µM) | 16 (≈ 79.1 µM) | 8 (≈ 39.6 µM) | 8 (≈ 39.6 µM) | 16 (≈ 79.1 µM) | 16 (≈ 79.1 µM) | 8 (≈ 39.6 µM) | 8 (≈ 39.6 µM) | 64 (≈ 316 µM) | 64 (≈ 316 µM) | 8 (≈ 39.6 µM) | 8 (≈ 39.6 µM)
4 | CC/C(=C\c1c[nH]c2ccccc12)[N+](=O)[O-] [Compound 30, 3-((E)-2-nitrobut-1-enyl)-1H-indole] |  | 64 to 66 | 64 (≈ 296 µM) | > 64 | > 64 | > 64 | 16 (≈ 74 µM) | 16 (≈ 74 µM) | 8 (≈ 37 µM) | 8 (≈ 37 µM) | 64 (≈ 296 µM) | 64 (≈ 296 µM) | 32 (≈ 148 µM) | 32 (≈ 148 µM) | > 64 | > 64 | 32 (≈ 148 µM) | 64 (≈ 296 µM)
